# Experimental data from patent US20220280594A1, “APPLICATION OF POLYPEPTIDE OR DERIVATIVE THEREOF” (CHENGDU HUITAI BIOMEDICINE CO., LTD., priority 2019, published 2022).
# Ends that are not written are not given here. PEG = not defined here
# Legend:
# Type in all cases: cell-based
# [1] = system: human pancreatic cancer cells (PANC-1); assay: transwell migration assay, PANC-1 cells; conditions: PANC-1 transwell migration, 10 μM, 24 hours; control group 360 ± 60
# How it was run: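 Serum-free PANC-1 cells placed in the upper transwell chamber with complete medium below; after 4-5 h, peptide added to the upper chamber at a final 10 μM. Migration ran 24 h at 37 °C; cells on the membrane underside were methanol-fixed, crystal violet-stained and counted by microscopy.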
# [2] = system: human breast cancer cells (MDA-MB-231); assay: scratch assay, migration of MDA-MB-231 cells; conditions: MDA-MB-231, 10 μM, 48 hours; control group 36.19 ± 5.15
# How it was run: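 MDA-MB-231 monolayers (1-2×10^5 cells/well) were scratched, then kept 48 h in medium with 2% FBS containing polypeptide at 10 μM, with a PBS control, in triplicate wells. Migration rate (%) was taken from scratch width: (original − current)/original ×100.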
# [3] = system: human prostate cancer cells (22RV1); assay: scratch assay, migration of 22RV1 cells; conditions: 22RV1, 10 μM, 48 hours; control group 25.41 ± 5.01
# How it was run: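 22RV1 monolayers (seeded 1-2×10^5 cells/well) were scratched, washed, then given 2% FBS medium with 10 μM polypeptide or PBS, triplicate wells, for 48 h. Migration rate (%) = (original − current scratch width)/original width ×100, from ≥3 images per well.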
# [4] = system: human lung squamous carcinoma cells (NCI-H226); assay: scratch assay, migration of NCI-H226 cells; conditions: NCI-H226, 10 μM, 48 hours; control group 65.31 ± 3.19
# How it was run: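 A straight scratch was made in confluent NCI-H226 monolayers (1-2×10^5 cells/well). Cells were then kept 48 h in 2% FBS medium with 10 μM polypeptide or PBS control, triplicate wells. Migration rate (%) = (original − current scratch width)/original width ×100, from imaged scratch widths.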
# [5] = system: human lung cancer cells (95D); assay: scratch assay, migration of 95D cells; conditions: 10 μM, 48 hours, control group 55.3 ± 3.19
# How it was run: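 Confluent 95D monolayers were scratched, washed with PBS and cultured 48 h in 2% FBS medium containing peptide (10 μM) or PBS control, in triplicate wells. Scratch width was measured on images; migration rate (%) = (original width − current width)/original width × 100.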
# [6] = system: human liver adenocarcinoma cells (SK-HEP-1); assay: transwell migration assay, SK-HEP-1 cells; conditions: SK-HEP-1 transwell migration, 10 μM, 24 hours; control group 1 782 ± 108, control group 2 768 ± 86
# How it was run: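 SK-HEP-1 cells in serum-free medium seeded in upper transwell chamber (2-3×10^5 cells/mL) over complete medium; after 4-5 h at 37 °C, 5% CO2, peptide added at 10 μM final in upper chamber. After 24 h, migrated cells fixed in methanol, crystal-violet stained, imaged and counted.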
# [7] = system: human non-small cell lung cancer cells (A549); assay: scratch assay, migration of A549 cells; conditions: A549, 10 μM, 48 hours; control group 75.31 ± 8.19
# How it was run: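 Confluent A549 monolayers in 24-well plates were scratched, washed with PBS, then cultured 48 h in 2% FBS medium with peptide at 10 μM or PBS control, triplicate wells. Scratch width measured from images; migration rate (%) = (original − current width)/original width × 100.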
# [8] = system: human pharyngeal squamous-cell carcinoma cells (Fadu); assay: scratch assay, migration of Fadu cells; conditions: 10 μM, 48 hours, control group 28.76 ± 4.08
# How it was run: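 Confluent Fadu monolayers scratched, then cultured 48 h with 10 μM polypeptide in medium with 2% FBS; PBS control, triplicate wells. Migration rate (%) = (original − current scratch width)/original width × 100, from ≥3 images per well.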
# [9] = system: human thyroid cancer cells (FRO); assay: scratch assay, migration of FRO cells; conditions: 10 μM, 48 hours, control group 60.34 ± 8.32
# How it was run: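 FRO monolayers were scratched, washed, and cultured 48 h in 2% FBS medium with polypeptide derivatives at 10 μM or PBS control, three wells per group. Migration rate (%) = (original − current scratch width)/original width × 100, measured from images.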
# [10] = system: human pancreatic cancer cells (PANC-1); assay: scratch assay, migration of PANC-1 cells; conditions: PANC-1, 10 μM, 48 hours; control group 66.65 ± 3.37
# How it was run: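 PANC-1 monolayers were scratched, then cultured for 48 h with 10 μM test compound in 2% FBS medium, in three parallel wells per group against a PBS control. Migration rate (%) was calculated as (original minus current scratch width) / original width × 100, from imaged wells.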
# [11] = system: human colon cancer cells (HCT-116); assay: scratch assay, migration of HCT-116 cells; conditions: HCT-116, 10 μM, 48 hours; control group 47.78 ± 6.07
# How it was run: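 Confluent HCT-116 monolayers were scratched, washed and cultured 48 h in 2% FBS medium with peptide at 10 μM versus PBS control, triplicate wells. Migration rate (%) = (original minus current scratch width)/original width × 100, from at least 3 images per well.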
Substance,"Number of cells (mean ± SD, P), migrated cells [1]","Migration rate (%) (mean ± SD, P) [2]","Migration rate (%) (mean ± SD, P) [3]","Migration rate (%) (mean ± SD, P) [4]","Migration rate (%) (mean ± SD, P) [5]","Number of cells (mean ± SD, P), migrated cells [6]","Migration rate (%) (mean ± SD, P) [7]","Migration rate (%) (mean ± SD, P) [8]","Migration rate (%) (mean ± SD, P) [9]","Migration rate (%) (mean ± SD, P) [10]","Migration rate (%) (mean ± SD, P) [11]"
"N33: SEQ ID NO: 1 with deletion of positions 1-5, addition of one amino acid and PEG modification at the carboxyl terminal (LAKENVTQDAEDNC-{PEG}; reading uncertain)","178 ± 14,***","22.68 ± 3.02,* %","10.03 ± 2.15,* %","40.73 ± 4.87,** %","30.73 ± 5.87,** %","354 ± 31,***","33.22 ± 4.51,** %","10.28 ± 2.06,** %","7.03 ± 2.02,*** %","39.27 ± 3.14,* %","12.85 ± 3.12,*** %"
"N34: SEQ ID NO: 1 with A15R, addition of one amino acid at the carboxyl terminal, PEG modification at the amino terminal ({PEG}-YRVRFLAKENVTQDREDNC; reading uncertain)","248 ± 19,*","17.34 ± 4.82,* %","5.00 ± 2.29,** %","36.53 ± 4.35,** %","13.53 ± 4.35,*** %","260 ± 32,****","30.51 ± 8.12,** %","7.38 ± 2.85,*** %","8.74 ± 3.40,*** %","28.58 ± 3.87,*** %","17.96 ± 3.84,** %"
"N35: SEQ ID NO: 1 with A15R, addition of one amino acid and PEG modification at the carboxyl terminal (YRVRFLAKENVTQDREDNC-{PEG}; reading uncertain)","151 ± 10,***","18.12 ± 5.23,* %","7.13 ± 2.23,** %","42.47 ± 5.12,** %","22.47 ± 5.12,*** %","315 ± 36,***","32.27 ± 9.53,** %","8.71 ± 1.79,*** %","8.04 ± 2.90,*** %","36.83 ± 5.92,** %","9.08 ± 2.64,*** %"
N37: SEQ ID NO: 1 with addition of two amino acids to the carboxyl terminal and PEG modification at the amino terminal ({PEG}-YRVRFLAKENVTQDAEDNCT; reading uncertain),"113 ± 11,***","20.43 ± 3.23,* %","4.86 ± 1.91,** %","11.33 ± 9.49,*** %","27.76 ± 6.51,** %","84 ± 7,****","49.45 ± 10.09,* %","15.89 ± 3.88,* %","36.47 ± 5.69,* %","18.23 ± 6.77,*** %","4.99 ± 1.68,*** %"
N38: SEQ ID NO: 1 with one amino acid added at each terminal and PEG modification at the carboxyl terminal (FYRVRFLAKENVTQDAEDNC-{PEG}; reading uncertain),"116 ± 27,***","18.99 ± 3.25,* %","7.73 ± 1.58,** %","47.66 ± 6.39,* %","37.60 ± 3.67,** %","380 ± 32,***","46.92 ± 4.49,** %","18.18 ± 3.61,* %","19.23 ± 7.52,** %","24.87 ± 5.81,*** %","5.97 ± 2.44,*** %"
N39: SEQ ID NO: 1 with addition of two amino acids and PEG modification at the carboxyl terminal (YRVRFLAKENVTQDAEDNTC-{PEG}; reading uncertain),"262 ± 13,*","19.08 ± 3.17,* %","4.21 ± 2.81,** %","21.82 ± 5.54,*** %","43.19 ± 4.82,* %","261 ± 25,****","56.39 ± 6.30,* %","18.48 ± 5.74,* %","36.51 ± 4.36,* %","16.29 ± 8.00,*** %","4.29 ± 2.88,*** %"
"N40: SEQ ID NO: 1 with deletion of positions 1-5 and 15-18, PEG at the amino terminal, two amino acids added at the carboxyl terminal ({PEG}-LAKENVTQDRC; reading uncertain)","264 ± 12,*","21.12 ± 4.15,* %","6.65 ± 2.54,** %","17.00 ± 6.49,*** %","36.23 ± 5.05,** %","290 ± 33,****","20.15 ± 8.91,** %","10.25 ± 2.76,** %","39.96 ± 4.95,* %","13.24 ± 8.56,*** %","2.19 ± 1.45,*** %"
